We go through 5 compounds from patent publication US10130615B2, “Benzomorphan analogs and the use thereof” (priority 2014, dated 2018).

Assay [1] has as its target T1, μ-opioid receptor (Homo sapiens, UniProt P35372). Kind of assay: biochemical. Further details: purchased Perkin Elmer, Shelton, Conn; host or cells: HEK-293 or CHO. To be noted: HEK-293 or CHO cells; for Emax: relative to DAMGO, read-out: GTPγS μ Emax; for EC50: read-out: GTPγS μ EC50.
Assay [2] has as its target T1, μ-opioid receptor. Description: cell-based. Details: purchased Perkin Elmer, Shelton, Conn. To be noted: U2OS cells; read-out: β-Arr2 μ Emax.
Assay [3] addresses T2, κ-opioid receptor (Homo sapiens, UniProt P41145). Description: κ-opioid receptor radioligand binding assay ([3H]-U69,593). Details: expressed in transfected cells; host or cells: HEK-293. The protocol:
κ-opioid Receptor Binding Assay Procedures: Membranes from recombinant HEK-293 cells expressing the human κ opioid receptor (κ) (cloned in house) were prepared by lysing cells in ice cold hypotonic buffer (2.5 mM MgCl2, 50 mM HEPES, pH 7.4) (10 mL/10 cm dish) followed by homogenization with a tissue grinder/Teflon pestle. Membranes were collected by centrifugation at 30,000×g for 15 min at 4° C. and pellets were resuspended in hypotonic buffer to a final concentration of 1-3 mg/mL. Protein concentrations were determined using the BioRad protein assay reagent with bovine serum albumen as standard. Aliquots of κ receptor membranes were stored at −80° C.
Radioligand dose displacement assays used 0.4 nM [^3H]-U69,593 (GE Healthcare, Piscataway, N.J.; 40 Ci/mmole) with 15 μg membrane protein (recombinant κ opioid receptor expressed in HEK 293 cells; in-house prep) in a final volume of 200 μl binding buffer (5% DMSO, 50 mM Trizma base, pH 7.4). Non-specific binding was determined in the presence of 10 μM unlabeled naloxone or U69,593. All reactions were performed in 96-well polypropylene plates for 1 hr at a temperature of about 25° C.

Assay [4] has as its target T2, κ-opioid receptor. Description: κ-opioid receptor [35S]GTPγS functional assay, HEK-293 or CHO cells. Format: biochemical. Further details: expressed in transfected cells; host or cells: HEK-293. To be noted: for Emax: relative to U69,593. As to the method: (§1) Plates were incubated for 30 min at a temperature of about 25° C. with shaking.
For orientation: GTPγS resists hydrolysis and so accumulates on activated G proteins.

Assay [5] concerns the target T2, κ-opioid receptor. Kind of assay: κ-opioid receptor β-Arr2 activity response, U2OS cells. Details: expressed in transfected cells; host or cells: U-2 OS. Format: cell-based.
Assay [6] has as its target T1, μ-opioid receptor. Description: μ-opioid receptor GTPγS functional assay, U2OS cells. Particulars: for Emax: read-out: GTPγS μ Emax.
Assay [7] has as its target T1, μ-opioid receptor. Description: μ-opioid receptor radioligand binding assay ([3H]-diprenorphine). Details: purchased Perkin Elmer, Shelton, Conn; host or cells: HEK-293 or CHO. The protocol:
μ-opioid Receptor Binding Assay Procedures: Radioligand dose-displacement binding assays for μ-opioid receptors used 0.3 nM [^3H]-diprenorphine (Perkin Elmer, Shelton, Conn.), with […] membrane protein/well in a final volume of 500 μl binding buffer (10 mM MgCl2, 1 mM EDTA, 5% DMSO, 50 mM HEPES, pH 7.4). Reactions were carried out in the absence or presence of increasing concentrations of unlabeled naloxone. All reactions were conducted in 96-deep well polypropylene plates for 2 hr at room temperature. […] The data were analyzed using the one-site competition curve fitting functions in GraphPad PRISM™ v. 3.0 or higher (San Diego, Calif.), or an in-house function for one-site competition curve-fitting.

In assay [8] the target is T2, κ-opioid receptor. Kind of assay: κ-opioid receptor GTPγS functional assay, U2OS cells. Details: expressed in transfected cells; host or cells: U-2 OS. Format: biochemical. As to the method: as §1
The mark [9] stands for this setting: HEK-293 or CHO cells, read-out: Ki (nM) Opioid Receptor κ.
[10] abbreviates: HEK-293 or CHO cells, read-out: GTPγS κ EC50.
Setting [11] is: U2OS cells, read-out: β-Arr2 κ EC50.
Setting [12] is: HEK-293 or CHO cells, read-out: Ki (nM) Opioid Receptor μ.
Where [13] appears, read: U2OS cells, read-out: GTPγS κ EC50.

Like-named read-outs stand apart in the source and are kept apart here.

T2 sequence (P41145 whole entry): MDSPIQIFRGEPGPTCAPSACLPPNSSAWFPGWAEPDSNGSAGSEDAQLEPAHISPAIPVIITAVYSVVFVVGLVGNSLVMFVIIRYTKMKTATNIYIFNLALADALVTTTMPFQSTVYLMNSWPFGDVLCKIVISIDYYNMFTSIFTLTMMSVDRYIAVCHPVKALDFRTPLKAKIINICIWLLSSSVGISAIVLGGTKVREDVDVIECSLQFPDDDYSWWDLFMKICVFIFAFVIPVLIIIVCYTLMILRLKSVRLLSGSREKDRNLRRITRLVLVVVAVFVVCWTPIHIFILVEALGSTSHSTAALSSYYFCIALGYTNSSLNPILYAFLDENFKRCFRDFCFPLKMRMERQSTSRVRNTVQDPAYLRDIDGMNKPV
T1 sequence (P35372 whole entry, species assumed): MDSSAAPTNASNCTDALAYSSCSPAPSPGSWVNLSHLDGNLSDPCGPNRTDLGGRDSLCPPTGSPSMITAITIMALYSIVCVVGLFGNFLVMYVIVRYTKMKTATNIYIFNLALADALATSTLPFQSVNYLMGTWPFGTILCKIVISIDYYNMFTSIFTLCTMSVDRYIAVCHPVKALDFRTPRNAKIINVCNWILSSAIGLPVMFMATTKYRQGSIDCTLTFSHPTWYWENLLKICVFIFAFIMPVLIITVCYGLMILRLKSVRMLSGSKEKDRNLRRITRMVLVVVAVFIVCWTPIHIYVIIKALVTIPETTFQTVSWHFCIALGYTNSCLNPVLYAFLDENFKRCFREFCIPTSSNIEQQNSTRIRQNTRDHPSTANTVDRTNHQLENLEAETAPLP

In general, Emax refers to the greatest response seen or fitted, relative to the assay's reference. A word on the Ki: it is a dissociation constant, usually derived from enzyme kinetics or from competition with a known ligand. The term EC50 denotes the concentration giving half of the maximal effect. With `C[C@H]1[C@H]2Cc3ccc(O)cc3[C@]1(CCNC(=O)Cc1ccc(C(=O)O)cc1)CCN2CC1CC1` [Compound 31, 4-(2-((2-((2R,6R,11R)-3-(cyclopropyl-methyl)-8-hydroxy-11-methyl-2,3,4,5-tetrahydro-2,6-methanobenzo[d]azocin-6(1H)-yl)ethyl)amino)-2-oxoethyl)-benzoic acid], the Emax on μ-opioid receptor [1] was 0%; at μ-opioid receptor [2] it was -1.25%; on κ-opioid receptor [4] (HEK-293 or CHO cells), 88.7 ± 6.89%; on κ-opioid receptor [5] (U2OS cells), 29.7 ± 5.04%; on μ-opioid receptor [6] it was 58 ± 4.73%; at κ-opioid receptor [8] (U2OS cells), 104 ± 3.48%. The inhibition constant (Ki) at κ-opioid receptor [3] (setting [9]) was 18.4 ± 3.6 nM; on μ-opioid receptor [7] (setting [12]) it was 25.1 ± 7.56 nM. Besides, the EC50 worked out at 94.2 ± 33.8 nM at κ-opioid receptor [4] (setting [10]), 53.4 ± 8.62 nM on κ-opioid receptor [5] (setting [11]), 8.77 ± 1.37 nM at μ-opioid receptor [6] and 18.5 ± 2.16 nM on κ-opioid receptor [8] (setting [13]).

With `C[C@H]1[C@H]2Cc3ccc(O)cc3[C@]1(CCNC(=O)c1ccc(C(=O)O)cc1)CCN2CC1CC1` [Compound 32, 4-((2-((2R,6R,11R)-3-(cyclopropyl-methyl)-8-hydroxy-11-methyl-2,3,4,5-tetrahydro-2,6-methanobenzo[d]azocin-6(1H)-yl)ethyl)carbamoyl)benzoic acid], the Emax at μ-opioid receptor [1] was -1%; on μ-opioid receptor [2], -1%; at κ-opioid receptor [4] (HEK-293 or CHO cells), 91.3 ± 9.94%; on κ-opioid receptor [5] (U2OS cells) it was 11.3 ± 1.2%; on μ-opioid receptor [6], 57.3 ± 5.04%; at κ-opioid receptor [8] (U2OS cells), 97.7 ± 4.67%. The Ki on κ-opioid receptor [3] (setting [9]) worked out at 35 ± 5.97 nM; on μ-opioid receptor [7] (setting [12]) it was 5.62 ± 1.41 nM. In addition, the EC50 at κ-opioid receptor [4] (setting [10]) came to 144 ± 25.4 nM; on κ-opioid receptor [5] (setting [11]) it was 26.7 ± 10.5 nM; on μ-opioid receptor [6], 2.16 ± 0.38 nM; at κ-opioid receptor [8] (setting [13]), 35.7 ± 5.29 nM.

As to `COC(=O)[C@H](C)NCC[C@]12CCN(CC3CC3)[C@H](Cc3ccc(OC)cc31)[C@@H]2C` [Compound 38, methyl (2-((2R,6R,11R)-3-(cyclopropyl-methyl)-8-methoxy-11-methyl-2,3,4,5-tetrahydro-2,6-methanobenzo[d]azocin-6(1H)-yl)ethyl)-L-alaninate], the half-maximal effective concentration (EC50) on μ-opioid receptor [1] stood at 551 ± 173 nM; at κ-opioid receptor [4] (setting [10]) it was 287 ± 30 nM; on κ-opioid receptor [5] (setting [11]) it was 141 ± 45.5 nM; at μ-opioid receptor [6], 137 ± 16.1 nM; at κ-opioid receptor [8] (setting [13]) it was 2.11 ± 0.23 nM. Also, the Emax was 15.8 ± 1.03% on μ-opioid receptor [1]; -0.17 ± 0.93% at μ-opioid receptor [2]; 109 ± 5.46% at κ-opioid receptor [4] (HEK-293 or CHO cells); 70 ± 2% at κ-opioid receptor [5] (U2OS cells); 53 ± 3.51% at μ-opioid receptor [6]; 112 ± 2.91% on κ-opioid receptor [8] (U2OS cells). Further, the Ki on κ-opioid receptor [3] (setting [9]) was 0.78 ± 0.14 nM; at μ-opioid receptor [7] (setting [12]) it was 94.7 ± 18.6 nM.

In the case of `COc1ccc2c(c1)[C@]1(CCO)CCN(CC3CC3)[C@H](C2)[C@@H]1C` [Compound 43, 2-((2R,6S,11R)-3-(cyclopropylmethyl)-8-methoxy-11-methyl-2,3,4,5-tetrahydro-2,6-methanobenzo[d]azocin-6(1H)-yl)ethan-1-ol], the EC50 at μ-opioid receptor [1] came to 1150 ± 199 nM; at κ-opioid receptor [4], 355 ± 63.6 nM; on κ-opioid receptor [5], 494 ± 140 nM; at μ-opioid receptor [6], 99 ± 5.84 nM; at κ-opioid receptor [8], 17.8 ± 1.45 nM. In addition, the Emax at μ-opioid receptor [1] was 22 ± 1.58%; at μ-opioid receptor [2] it was -1%; on κ-opioid receptor [4] (HEK-293 or CHO cells), 97.7 ± 5.36%; on κ-opioid receptor [5] (U2OS cells) it was 59.3 ± 3.18%; on μ-opioid receptor [6], 107 ± 5.83%; at κ-opioid receptor [8] (U2OS cells), 102 ± 3.71%. The Ki was 3.63 ± 0.7 nM at κ-opioid receptor [3] and 233 ± 46.9 nM at μ-opioid receptor [7].

Take `COc1ccc2c(c1)[C@]1(CCOCc3ccccc3)CCN(CC3CC3)[C@H](C2)[C@@H]1C` [Compound 45, (2R,6S,11R)-6-(2-(benzyloxy)ethyl)-3-(cyclopropylmethyl)-8-methoxy-11-methyl-1,2,3,4,5,6-hexahydro-2,6-methanobenzo[d]azocine]: the EC50 on μ-opioid receptor [1] stood at 267 ± 20.1 nM; at κ-opioid receptor [4] (setting [10]), 16.3 ± 0.74 nM; at κ-opioid receptor [5] (setting [11]), 26.7 ± 8.55 nM; at μ-opioid receptor [6] it was 38 ± 2.09 nM; at κ-opioid receptor [8] (setting [13]) it was 0.95 ± 0.14 nM. Further, the Emax at μ-opioid receptor [1] was found to be 16.3 ± 0.88%; on μ-opioid receptor [2] it was 1.33 ± 0.33%; on κ-opioid receptor [4] (HEK-293 or CHO cells) it was 104 ± 5.03%; at κ-opioid receptor [5] (U2OS cells), 84 ± 2.08%; at μ-opioid receptor [6] it was 103 ± 6.47%; on κ-opioid receptor [8] (U2OS cells) it was 96.3 ± 5.17%. Further, the values for the Ki at κ-opioid receptor [3] (setting [9]) and at μ-opioid receptor [7] (setting [12]) were 0.16 ± 0.03 nM and 543 ± 116 nM, respectively.
